Experimental data published in patent US20240368145A1, “METHODS FOR TREATING CANCER” (IMMUNIC AG, priority 2021, published 2024).
pIC50: −log10 of the molar value.

How the values were obtained:
AR-FL protein = experiment: Androgen receptor protein expression (western blot) in 22Rv1: AR-FL; format: cell-based, human; settings: 22Rv1, 6 μM, 48 h; western blot quantification
Protocol: (§1) After 48 h, cell were lysed using cell extraction buffer (Life Technologies #FNN0011) for western blot. […] The membrane is then incubation for 1 hour in blocking buffer (5% milk in 20 mM Tris, 150 mM NaCl, pH 7.5, 0.05% Tween 20 [TBS-T]). After this incubation, the primary antibody is added and incubated overnight at 4° C. After washing, the membrane was incubated with the secondary antibody for 1 h. Visualization of the bands was performed using the femto maximum sensitivity substrate reagent and the luminescence signal recorded with the Fusion FX7 (Vilber). For protein quantification, InageJ was used.

AR-V7 protein = experiment: Androgen receptor protein expression (western blot) in 22Rv1: AR-V7; format: cell-based, human; settings: 22Rv1, 6 μM, 48 h; western blot quantification
Protocol: as §1

AR-V7 mRNA = experiment: Androgen receptor RNA level expression (qRT-PCR) in 22Rv1: AR-V7; format: cell-based; settings: 22Rv1, 1 μM, 48 h; for mrna remaining at 1 µM: Homo sapiens
Protocol: (§2) The prostate cancer cell line 22Rv1 was treated for 48 h with 1 μM Example compound 1, 1/1, 1/2, 2/1, 2/2, 2/3, 2/4, 2/5, 2/6, 2/7, 2/8, 2/9 and 2/10 and the reference compounds SR2211 and XY018 (Nat. Med. 2016; 22:488). RNA was extracted using the RNA isolation kit XS (Macherey-Nagel) and following the manufacture's manual. RNA quantity was measured with the Nanodrop before reverse transcription using Superscript II (Invitrogen #100004925). For the quantitative real-time PCR with SYBR-Green (Qiagen #204074), the following primers were used: AR forward-ACATCAAGGAACTCGATCGTATCATTGC and reverse-TTGGGCACTTGCACAGAGAT, AR-V7: forward-CCATCTTGTCGTCTTCGGAAATGTTATGAAGC and reverse-TTTGAATGAGGCAAGTCAGCCTTTCTT. The qRT-PCR proceeded as follows: denaturation for 5 min 95° C.; 40 cycles of “20 sec at 95° C. and 15 sec at 60° C.” and at the end of the last cycle, the melting temperature of the products was determined by gradually increasing it from 60° C. to 99° C. CT values from all samples were normalized to two different reference (housekeeping) genes using the mean CT value of the GAPDH and YWHAZ (reference genes). Next the values are normalized to the untreated control (vehicle/DMSO).

[1] = tested on: full length AR (AR-FL) mRNA; experiment: Androgen receptor RNA level expression (qRT-PCR) in 22Rv1: AR-FL; format: cell-based; settings: 22Rv1, 1 μM, 48 h; for AR-FL mRNA expression / mrna remaining at 1 µM: normalized to untreated control (vehicle/DMSO); for mrna remaining at 1 µM: Homo sapiens
Protocol: as §2

KLK2 mRNA = experiment: Expression of AR target genes (qRT-PCR) in 22Rv1: KLK2; format: cell-based; settings: 22Rv1, 1 μM; for KLK2 mRNA expression / mrna remaining at 1 µM: 48h, relative to vehicle control (DMSO); for KLK2 mRNA level expression: 48 h; for mrna remaining at 1 µM: Homo sapiens
Protocol: (§3) The prostate cancer cell line 22Rv1 was treated for 48h with 1 μM Example compound 1, 1/1, 2/1, 2/2, 2/3, 2/4, 2/5, 2/6, 2/7, 2/8, 2/9 and 2/10 and reference compounds SR2211 and XY018. RNA was extracted using the RNA isolation kit XS (Macherey-Nagel) and following the manufacture's manual. RNA quantity was measured with the Nanodrop before reverse transcription using Superscript II (Invitrogen #100004925). For the quantitative real-time PCR with SYBR-Green (Qiagen #204074), the following primers were used:
(§4) qRT-PCR was performed using SYBR-Green (Qiagen #204074) reagents in a PCR cycler (Gorbett Research) Rotor Gene RG3000 with the following program: denaturation for 5′ at 95° C.; 40 cycles of 20″ at 95° C. and 15″ at 60° C.″ and at the end of the last cycle, the melting temperature of the products was determined by gradually increasing from 60° C. to 99° C. CT values from all samples were normalized to reference (housekeeping) genes using the mean CT value of the GAPDH and YWHAZ (reference genes). Next the values are put relative to the untreated control (vehicle/DMSO).

CAMKK2 mRNA = experiment: Expression of AR target genes (qRT-PCR) in 22Rv1: CAMKK2; format: cell-based; settings: 22Rv1, 1 μM, 48h; relative to vehicle control (DMSO)
Protocol: as §3, §4

IFNγ = experiment: Cytokine assay, human PBMC stimulated with PHA: IFNγ; format: cell-based; settings: PHA-activated, 48 hours, read-out: IFNγ inhibition (IC50 range)
Protocol: (§5) Peripheral blood mononuclear cells (PBMC) from healthy human donors were purified using Accuspin™ System-Histopaque-1077 (Sigma) according to the protocol recommended by the manufacturer. Purified PBMC were then washed twice with phosphate-buffered saline (PBS) and resuspended in RPMI1640 culture medium supplemented with 10% dialyzed heat inactivated fetal calf serum, 1.5 mM L-glutamine, 100 U penicillin/mL and […] streptomycin/mL (all from PAN Biotech, Aidenbach, Germany). For stimulation, PBMC were seeded at 1×10^5 cells/well, activated with 2 gg/mL phytohaemagglutinin (PHA, Sigma) and incubated with the test compounds for 48 hours. IL-17A, IL-17F and INFγ were then determined in the culture supernatant using a Luminex BioPlex system, following the manufacturer's instructions (BioRad, Munich, Germany). To determine the IC50, compounds were titrated semilogarithmically.
(§6) Cytokines were determined in the aforementioned culture supernatant using the following methods: IL-17A was measured using the human homodimer IL-17A ELISA Ready Set Go Kit from cBioscience (Frankfurt, Germany); IL-17F using the human IL-17F ELI-Pair from Holzel Diagnostica GmbH (K51n, Germany); and IFNγ using the OptEIA human IFN-g ELISA from BD Bioscience (Heidelberg, Germany), all following the manufacturer's instructions.

IL-17A = experiment: Cytokine assay, human PBMC stimulated with PHA: IL-17A; format: cell-based; settings: PHA-activated, 48 hours, read-out: IL-17A inhibition (IC50 range)
Protocol: as §5, §6

AML cell line THP-1 = experiment: CellTiter-Blue proliferation assay, THP-1; format: cell-based; settings: Homo sapiens, geometric mean relative IC50, 72 hours, read-out: IC50 range for cell line THP-1
Protocol: (§7) Aim of this study was to evaluate compounds of Example 1, 1/1, 2/2, 2/5 and 2/6 in a proliferation assays. The 5 test compounds were tested in a CellTiter-Blue® based proliferation assay in three AML cell lines (HL-60, THP-1 and MOLM-13). The compounds were tested at 10 concentrations in half-log increments (highest concentration 30 μM or 100 μM) in duplicates. The incubation period with the applied compounds was fixed to 72 hours.

FKBP5 mRNA = experiment: Expression of AR target genes (qRT-PCR) in 22Rv1: FKBP5; format: cell-based; settings: Homo sapiens; 22Rv1, 1 μM, 48h; relative to vehicle control (DMSO)
Protocol: as §3, §4

AML cell line MOLM-13 = experiment: CellTiter-Blue proliferation assay, MOLM-13; format: cell-based; settings: Homo sapiens, geometric mean relative IC50, 72 hours, read-out: IC50 range for cell line MOLM-13
Protocol: as §7

NKX3.1 mRNA = experiment: Expression of AR target genes (qRT-PCR) in 22Rv1: NKX3.1; format: cell-based; settings: Homo sapiens; 22Rv1, 1 μM, 48h; relative to vehicle control (DMSO)
Protocol: as §3, §4

IL-17F = experiment: Cytokine assay, human PBMC stimulated with PHA: IL-17F; format: cell-based; settings: PHA-activated, 48 hours, read-out: IL-17F inhibition (IC50 range)
Protocol: as §5, §6

AML cell line HL-60 = experiment: CellTiter-Blue proliferation assay, HL-60; format: cell-based; settings: Homo sapiens, geometric mean relative IC50, 72 hours, read-out: IC50 range for cell line HL-60
Protocol: as §7

[2] = normalized to untreated control (vehicle/DMSO)

| Compound | AR-V7 mRNA expression (AR-V7 mRNA; [2]) | AR-FL mRNA expression [1] | pIC50 (IFNγ) | pIC50 (IL-17A) | pIC50 (AML cell line THP-1) | pIC50 (AML cell line MOLM-13) | AR-V7 mRNA expression (AR-V7 mRNA) | pIC50 (IL-17F) | full length AR (AR-FL) mRNA expression [1] | pIC50 (AML cell line HL-60) | AR-FL protein level (AR-FL protein) | AR-V7 protein level (AR-V7 protein) | KLK2 mRNA expression (KLK2 mRNA) | CAMKK2 mRNA expression (CAMKK2 mRNA) | mrna remaining at 1 µM (FKBP5 mRNA) [%] | mrna remaining at 1 µM (AR-V7 mRNA; [2]) [%] | mrna remaining at 1 µM (NKX3.1 mRNA) [%] | mrna remaining at 1 µM [1] [%] | KLK2 mRNA level expression (KLK2 mRNA) | mrna remaining at 1 µM (KLK2 mRNA) [%] |
| --- | --- | --- | --- | --- | --- | --- | --- | --- | --- | --- | --- | --- | --- | --- | --- | --- | --- | --- | --- | --- |
| COC(=O)c1c(-c2c(F)cccc2Cl)noc1-c1cnn([C@H]2C[C@@](C)(O)C2)c1C(F)(F)F [Example 2/2] | – | – | > 7.60 | > 7.60 | 7.00 to 8.00 | > 8.00 | strong reduction | > 7.60 | strong reduction | > 8.00 | – | – | – | – | 24.6 | 19.9 | 25.5 | 38 | strong inhibition | 34.1 |
| C[C@]1(O)C[C@@H](n2ncc(-c3onc(-c4c(F)cccc4Cl)c3-c3ncccn3)c2C(F)(F)F)C1 [2/5] | – | – | > 7.60 | > 7.60 | > 8.00 | > 8.00 | strong reduction | > 7.60 | strong reduction | > 8.00 | – | – | – | – | 27.1 | 23.9 | 30.7 | 45.4 | strong inhibition | 37.7 |

Now from value to compound, other results behind:

| AR-V7 mRNA expression (AR-V7 mRNA; [2]) | AR-FL mRNA expression [1] | pIC50 (IFNγ) | pIC50 (IL-17A) | pIC50 (AML cell line THP-1) | pIC50 (AML cell line MOLM-13) | AR-V7 mRNA expression (AR-V7 mRNA) | pIC50 (IL-17F) | full length AR (AR-FL) mRNA expression [1] | pIC50 (AML cell line HL-60) | Compound | AR-FL protein level (AR-FL protein) | AR-V7 protein level (AR-V7 protein) | KLK2 mRNA expression (KLK2 mRNA) | CAMKK2 mRNA expression (CAMKK2 mRNA) | mrna remaining at 1 µM (FKBP5 mRNA) [%] | mrna remaining at 1 µM (AR-V7 mRNA; [2]) [%] | mrna remaining at 1 µM (NKX3.1 mRNA) [%] | mrna remaining at 1 µM [1] [%] | KLK2 mRNA level expression (KLK2 mRNA) | mrna remaining at 1 µM (KLK2 mRNA) [%] |
| --- | --- | --- | --- | --- | --- | --- | --- | --- | --- | --- | --- | --- | --- | --- | --- | --- | --- | --- | --- | --- |
| 1.237 | 1.111 | – | – | – | – | – | – | – | – | O=C(Cc1ccccc1[N+](=O)[O-])Nc1ccc(-c2ccc(C(O)(C(F)(F)F)C(F)(F)F)cc2F)cc1 [XY018, reference compound] | 0.588 | 0.653 | 0.831 | 0.959 | – | – | – | – | – | – |
| – | – | > 7.60 | > 7.60 | 7.00 to 8.00 | > 8.00 | strong reduction | > 7.60 | strong reduction | > 8.00 | C[C@]1(O)C[C@@H](n2ncc(-c3onc(-c4ccccc4Cl)c3-c3ncccn3)c2C(F)(F)F)C1 [2/6] | – | – | – | – | 33.8 | 30.4 | 44 | 54.9 | strong inhibition | 42.8 |
| 1.059 | 1.058 | – | – | – | – | – | – | – | – | OC(c1ccc(-c2ccc(CN3CCN(Cc4ccncc4)CC3)cc2)c(F)c1)(C(F)(F)F)C(F)(F)F [SR2211, reference compound] | 0.675 | 0.728 | 1.284 | 1.009 | – | – | – | – | – | – |
